Measurements published in patent US7241763B2, “3-furanyl analogs of toxoflavine as kinase inhibitors” (priority 2002, dated 2007).

What was measured:
AKT3 [1] = molecular target: T1, AKT3 (Homo sapiens, UniProt Q9Y243); assay: In vitro inhibition of AKT3 using a filter assay (AKT3 pep., Ex. C3); type: biochemical; settings: histone H2B substrate, filter assay, 25° C. 3 hrs; read-out: AKT3 pep. (Ex. C3): pIC50 values (converted)
Description: In Vitro Inhibition of AKT3 using a Filter Assay
In the present AKT3 filter assay, a kinase substrate consisting of a fragment of histone H2B, is incubated with the aforementioned protein in the presence of (^33P) radiolabeled ATP. The (^33P)phosporylated substrate binds to a phosphocellulose cation exchange filter, that can easily be removed from the incubation mixture and counted using a microplate scintillation counter.
AKT3 filter assays were performed at 25° C. for 3 hrs in the presence of 25 mM Hepes, pH 7.0, containing 15 mM MgCl2, 1 mM DTT Each assay was performed in a 100 μl reaction volume containing 111 nM AKT3 (diluted in 25 mM Hepes, pH 7.0, containing 15 mM MgCl2, 1 mM DTT) and the 2.5 μM Histone H2B and 2 nM ATP-P^32. The reaction was terminated by addition of 100 μl 75 mM H3PO4, 90 μl of the assay mixture was filtered through Phosphocellulose cation exchange paper. After five times washing with […] H3PO4, the filterpaper was counting in a microtiterplate scintillation counter.

AKT3 [2] = molecular target: T1, AKT3; assay: Cellular inhibition of AKT3 using an ELISA (AKT cel, Ex. C6); type: cell-based; parameters: endogenous in cells; host or cells: MDA-MB 231; settings: MDA-MB 231 cells, phosphorylated MAPK ELISA, 30 minutes with compound; read-out: AKT cel (Ex. C6): pIC50 values (converted)
Description: Cellular Inhibition of AKT3 using an ELISA
The human breast adenocarcinoma cell line (MDA-MB 231) was used in an phosphospecific antibody cell ELISA (PACE) to assess the inhibitory effect of the compounds on AKT3 mediated phosphorylation of mitogen-activated protein kinase (MAPK). In the experiments the MDA-MB 231 cells were serum starved for 24 hours (5% CO2; 37° C.). Subsequently, the cells are incubated at room temperature for 2 hours with 20 μM (in serum free medium) of the phosphatidylinositol 3-kinase inhibitor Ly294002 (Alexis, San Diego, Calif.) prior to the incubation for 30 minutes with the compounds at a final concentration ranging from 1 nM to 3 μM. After fixation (with 4.5% formaldehyde) for 20 minutes and washing with PBS (0.1M) the cells were successively incubated with for 5 minutes with 0.1% Triton X-100 in PBS, for 20 minutes with 0.6% H2O2 and 1 hour with a 2% BSA solution as blocking buffer. […] The OD (490–655 nm) reflected the amount of phosphorylated MAPK and the pIC50 of the compounds was based on their effect with respect to blanco (0.1% DMSO) or an internal reference compound treatment.

CDC25B = molecular target: T2, CDC25B (Homo sapiens, UniProt P30305); assay: In vitro inhibition of CDC25B using the fluorogenic substrate 3-OMFP (CDC25B WT, Ex. C5); type: biochemical; settings: 3-OMFP substrate, 1 hour room temperature; read-out: CDC25B WT (Ex. C5): pIC50 values (converted)
T2 sequence (P30305 1-580): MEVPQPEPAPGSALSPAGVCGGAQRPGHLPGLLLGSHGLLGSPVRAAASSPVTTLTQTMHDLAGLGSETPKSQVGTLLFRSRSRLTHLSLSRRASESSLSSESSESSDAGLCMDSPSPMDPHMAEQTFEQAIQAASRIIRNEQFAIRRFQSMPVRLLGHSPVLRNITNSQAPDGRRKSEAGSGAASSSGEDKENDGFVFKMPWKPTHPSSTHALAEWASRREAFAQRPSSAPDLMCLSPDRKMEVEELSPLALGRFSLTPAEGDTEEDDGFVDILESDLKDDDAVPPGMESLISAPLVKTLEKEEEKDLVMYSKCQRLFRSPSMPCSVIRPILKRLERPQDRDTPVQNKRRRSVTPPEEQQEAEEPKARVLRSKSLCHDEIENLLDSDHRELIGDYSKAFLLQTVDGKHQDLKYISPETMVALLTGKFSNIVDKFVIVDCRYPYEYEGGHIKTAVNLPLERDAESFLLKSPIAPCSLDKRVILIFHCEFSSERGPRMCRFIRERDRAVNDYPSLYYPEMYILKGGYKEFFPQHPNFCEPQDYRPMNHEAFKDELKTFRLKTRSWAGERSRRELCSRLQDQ
Description: In Vitro Inhibition of CDC25B using the Fluorogenic Substrate 3-OMFP
CDC25B phosphatase activity is assessed using the fluorogenic substrate 3-O-methyl-flurorescein-phosphate (3-OMFP). The phosphatase-reaction is performed for 1 hour at room temperature in a black microtiter plate in a volume of 50 μl. The reaction mixture contains 4 μg/mlCDC25B, 15 μM (3-OMFP), 15 mM Tris, 50 mM NaCl, 1 mM DTT, 1 mM Na2EDTA at pH 8.0 and 0.1% DMSO solution at 10^−5 M and the hits are tested in the same conditions in a full dose/response from 10^−5, 3.10^−6, 10^−6 and 3.10^−7 M. The enzymatic activity is determined by measuring the fluorescent signal at 485 nm (ex.) and 538 (em.).

A2780 cell = assay: Cytotox/survival of A2780 cell after 3 days; type: cell-based; settings: Homo sapiens, 72 h; A2780 ovarian carcinoma cell line, 3 days; read-out: Cytotox/survival of A2780 cell after 3 days - pIC50 values (converted)
Description: In an alternative assay, the growth inhibitory effect of the compounds was tested on the ovarian carcinoma cell line A2780 using art known cytotoxicity assays such as LIVE/DEAD (Molecular Probes) or MTT.

cdk4 = cdk4 (Homo sapiens, UniProt P11802); assay: In vitro inhibition of cdk4 using a scintillant proximity assay (CDK4 SPA, Ex. C1); type: biochemical; settings: GST-pRb substrate, 33P-ATP, room temperature 30 minutes; read-out: CDK4 SPA (Ex. C1): pIC50 values (converted)
Description: In Vitro Inhibition of cdk4 using a Scintillant Proximity Assay
The scintillant proximity assay (SPA) is in general described in U.S. Pat. No. 4,568,649 (Amersham Pharmacia Biotech). In the present cdk4 SPA kinase reaction assay, a kinase substrate consisting of a fragment of the restinoblastoma protein (pRb) tagged with […] (GST), is incubated with the aforementioned protein in the presence of (^33P) radiolabeled ATP. (^33P) phosporylation of the substrate is subsequently measured as light energy emitted using glutathione-coated SPA beads (Amersham Pharmacia Biotech) by trapping and quantifying the binding of the GST tagged and radiolabeled restinoblastoma protein.
The CDK4 SPA kinase reaction is performed at room temperature for 30 minutes in a 96-well microtiter plate. For each of the tested compounds a full dose response —10^−5M to 3.10^−9M—has been performed. Flavopiridol was used as reference compound. The 100 μl reaction volume contains 50 mM Hepes, 10 mM NaF, 10 mM MgCl2, 1 mM Na3VO4 pH 7.5, 1.5 μg CDK4-cell lysate/well, 0.2 μM unlabeled ATP, 1.7 μg/well GST-pRb, 1.7 nM AT^33P and 1 μl of a DMSO solution. The reaction is stopped by diluting the reaction mixture ½ with 0.1 mM Na2EDTA, 0.1 mM non-labeled ATP, 0.05% Triton-X-100 and 10 mg/ml glutathion coated beads in PBS. The microtiterplates are centrifuges at 900 rpm for 10 minutes and the amount of phosphorylated (^33P) pRb is determined by counting (1 min/well) in a microtiterplate scintillation counter.

Sequence of cdk4 (P11802 whole entry): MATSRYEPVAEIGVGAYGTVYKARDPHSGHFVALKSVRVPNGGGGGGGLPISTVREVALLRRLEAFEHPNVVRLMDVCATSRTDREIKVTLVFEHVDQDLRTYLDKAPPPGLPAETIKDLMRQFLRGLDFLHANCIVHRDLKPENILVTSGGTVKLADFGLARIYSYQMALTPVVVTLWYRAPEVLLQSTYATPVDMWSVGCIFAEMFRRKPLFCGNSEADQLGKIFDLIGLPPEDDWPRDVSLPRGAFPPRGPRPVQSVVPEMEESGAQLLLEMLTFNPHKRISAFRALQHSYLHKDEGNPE
Sequence of cdk4 (P24385 whole entry partner): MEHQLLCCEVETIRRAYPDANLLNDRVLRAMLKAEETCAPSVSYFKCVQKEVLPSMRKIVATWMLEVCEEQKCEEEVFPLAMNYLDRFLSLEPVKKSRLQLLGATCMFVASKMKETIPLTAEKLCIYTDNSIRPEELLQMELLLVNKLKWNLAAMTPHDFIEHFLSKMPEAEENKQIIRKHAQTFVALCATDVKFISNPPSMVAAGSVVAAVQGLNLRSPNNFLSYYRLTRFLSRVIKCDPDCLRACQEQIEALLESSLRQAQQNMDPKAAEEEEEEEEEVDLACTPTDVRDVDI
T1 sequence (Q9Y243 whole entry): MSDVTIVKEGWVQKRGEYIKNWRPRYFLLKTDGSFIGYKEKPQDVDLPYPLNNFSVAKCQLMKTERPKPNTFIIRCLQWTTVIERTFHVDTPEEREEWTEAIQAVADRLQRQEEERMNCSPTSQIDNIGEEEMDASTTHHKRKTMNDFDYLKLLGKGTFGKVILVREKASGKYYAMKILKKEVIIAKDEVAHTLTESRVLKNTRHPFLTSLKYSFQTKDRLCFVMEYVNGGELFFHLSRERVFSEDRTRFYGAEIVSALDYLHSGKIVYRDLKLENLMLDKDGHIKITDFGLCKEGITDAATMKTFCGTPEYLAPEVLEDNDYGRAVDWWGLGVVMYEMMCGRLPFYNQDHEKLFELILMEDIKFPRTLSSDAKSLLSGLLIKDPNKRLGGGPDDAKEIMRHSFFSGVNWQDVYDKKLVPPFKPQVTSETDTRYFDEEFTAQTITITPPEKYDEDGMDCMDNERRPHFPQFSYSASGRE

Cn1c(=O)nc2n(C3CCCC3)nc(-c3ccc(-c4ccc(CO)cc4)o3)nc-2c1=O [Compound 31]
IC50 (AKT3 [1]): 44.3 nM
IC50 (AKT3 [2]): 277 nM
IC50 (CDC25B): 13.8 nM
melting point: 182 °C
IC50 (A2780 cell): 74 nM
IC50 (cdk4): 137 nM

Cn1c(=O)nc2n(C3CCCC3)nc(-c3ccc(-c4ccc(CNCc5cccnc5)cc4)o3)nc-2c1=O [Compound 122]
IC50 (AKT3 [1]): 30.9 nM
IC50 (AKT3 [2]): 123 nM
IC50 (CDC25B): 14 nM
melting point: 205 °C
IC50 (A2780 cell): 70.5 nM
IC50 (cdk4): 91 nM

Cn1c(=O)nc2n(C3CCCC3)nc(-c3ccc(-c4ccc(CN(CCO)CCO)cc4)o3)nc-2c1=O [Compound 134]
IC50 (AKT3 [1]): 59.8 nM
IC50 (AKT3 [2]): 39.2 nM
IC50 (CDC25B): 12.9 nM
melting point: 242 °C
IC50 (A2780 cell): 52.7 nM
IC50 (cdk4): 111 nM

Cn1c(=O)nc2n(C3CCCC3)nc(-c3ccc(-c4ccc(CN5CCN(CCOCCO)CC5)cc4)o3)nc-2c1=O [Compound 121]
IC50 (AKT3 [1]): 57.3 nM
IC50 (AKT3 [2]): 406 nM
IC50 (CDC25B): 12 nM
melting point: > 250 °C
IC50 (A2780 cell): 137 nM
IC50 (cdk4): 161 nM

Cn1c(=O)nc2n(C3CCCC3)nc(-c3ccc(-c4ccc(CN5CCCC5)cc4)o3)nc-2c1=O [Compound 131]
IC50 (AKT3 [1]): 91.4 nM
IC50 (AKT3 [2]): 71.8 nM
IC50 (CDC25B): 18.6 nM
melting point: 218 °C
IC50 (A2780 cell): 61.7 nM
IC50 (cdk4): 51.9 nM

COC1CCN(Cc2ccc(-c3ccc(-c4nc5c(=O)n(C)c(=O)nc-5n(C5CCCC5)n4)o3)cc2)CC1 [Compound 132]
IC50 (AKT3 [1]): 47 nM
IC50 (AKT3 [2]): 58.3 nM
IC50 (CDC25B): 20.2 nM
melting point: 220 °C
IC50 (A2780 cell): 87.7 nM
IC50 (cdk4): 78.5 nM

CC(C)n1nc(-c2ccc(-c3ccc(CN(C)CCO)cc3)o2)nc2c(=O)n(C)c(=O)nc1-2 [Compound 87]
IC50 (AKT3 [1]): 72.9 nM
IC50 (AKT3 [2]): 35.2 nM
IC50 (CDC25B): 24.3 nM
melting point: 229 °C
IC50 (A2780 cell): 61.4 nM
IC50 (cdk4): 80.7 nM

COCCN1CCN(Cc2ccc(-c3ccc(-c4nc5c(=O)n(C)c(=O)nc-5n(C5CCCC5)n4)o3)cc2)CC1 [Compound 133]
IC50 (AKT3 [1]): 61 nM
IC50 (AKT3 [2]): 67.8 nM
IC50 (CDC25B): 11.6 nM
melting point: 186 °C
IC50 (A2780 cell): 119 nM
IC50 (cdk4): 112 nM

CN1CCN(C(=O)COc2ccc(-c3ccc(-c4nc5c(=O)n(C)c(=O)nc-5n(C5CCCC5)n4)o3)cc2)CC1 [Compound 119]
IC50 (AKT3 [1]): 54 nM
IC50 (AKT3 [2]): 470 nM
IC50 (CDC25B): 17.6 nM
melting point: 252 °C
IC50 (A2780 cell): 48.1 nM
IC50 (cdk4): 129 nM
